Results published in patent US4393178A, “Fast crystallizing polyester compositions” (priority 1979, dated 1983).
Where two headings read alike, the source gives them in different places.

Legend:
[1] = Solubility parameter δ of the acid
[2] = Degradation constant K (melt degradation performance); type: physicochemical
Experimental: (§1) The melt degradation performance is a measure of the extent of degradation under molten conditions. A convenient method of quantifying the performance is by measuring the "K value". A method for determining this value in the molten state using an Instron Capillary rheometer is given in a paper by J. Devaux et al in Makromol.
(§2) This method is carried out on samples prepared by reacting the salt with the polyester on a 2 roll-mill at a temperature above the melting point of the polyester for 5 minutes and then pressing the product obtained into a 2 mm thick sheet using the same temperature for 3 minutes before cooling to room temperature. The method is described for polyethylene terephthalate but can be readily adapted for other polyesters.
For polyethylene terephthalate the K value in the presence of salt should be less than 60.

[3] = Half-crystallisation time (t1/2), isothermal DSC; type: physicochemical
Experimental: A DSC 2 Perkin Elmer scanning calorimeter was used.
10 mg of the sample of polymer material are placed in a capsule and introduced into the apparatus, wherein the sample is quickly heated to a temperature of 290° C. at which it is maintained during 1 minute.
The molten polymer material is then very quickly cooled by means of liquid air (at a rate of 320° C. per minute) until the crystallisation temperature is reached.
The crystallisation isotherm is registered on a temperature-time graph and the peak appearing on the registered isotherm is taken as the half-crystallisation time (t1/2).

[4] = Crystallinity of injection moulded articles; type: physicochemical; conditions: 0.5% salt, mould 120 °C, cycling time 12 seconds, based on heat of fusion 24 Cal/g
Experimental: The extruded product of Example 6 has been dried (120° C.) in a ventilated oven. The obtained pellets have been moulded by injection in a Buhler Rover 63 machine.
Different cycling times have been experimented.

[5] = water; cited from earlier work
[6] = ΔT = Tc(cooling) - Tn(heating), DSC; type: physicochemical
Experimental: An alternative method for assessing the effectiveness of nucleation of an additive is to compare the difference between the value of the crystallisation peak on cooling (Tc) with that on heating (Tn) for a composition containing an ionisable salt. The value obtained from this comparison, Tc(cooling) -Tn(heating) is termed ΔT. […] Samples of polyester together with 1% of the salt under test were mixed in a 2-roll mill at 270° C. for 5 minutes. The sample produced was pressed into 2 mm thick sheets at 270° C. for 3 minutes and then cooled to room temperature. 10 mg of the sample was placed in a capsule and rapidly heated to 290° C. After maintaining this temperature for 1 minute the capsule was quenched in water. The crystallisation peak temperatures on heating (Tn) and cooling (Tc) were determined using heating and cooling rates of 10° C./minute on a Perkin Elmer DSC 2 machine.

[7] = Degradation constant K, block copolymer; type: physicochemical; conditions: 1% salt, 2-roll mill 270 °C 2 minutes, compared with polyester itself
Experimental: as §1, with “Makromol. Chem. 179, 2201-2209 (1978).” for “Makromol.”
as §2
(§3) The polymer used in Example 16 and 1% of the disodium salt of o-hydroxy benzoic acid were compounded on a 2-roll mill at 270° C. for 2 minutes. […] (measured at a heating rate of 10° C./minute).

[8] = End group determination, block copolymer; type: physicochemical; conditions: 1% salt, 2-roll mill 270 °C 2 minutes
Experimental: The total number of end groups in the polyester were found by determining the intrinsic viscosity of the polyester and using the correlation between I.V. and number of end groups given in Transactions of the Faraday Societ 1961, Volume 57, pages 150 to 159. The numbers of hydroxyl and carboxyl groups were also determined according to the procedure given in this paper.
as §3

[9] = Crystallisation peak temperature on heating (Tn), DSC; type: physicochemical; conditions: 1% salt deposited from solution on PET, pressed 280 °C 1 minute; heating rate 16 °C/minute; listed as disodium salt of o-hydroxy benzoic acid
Experimental: In one such DSC technique the crystallisation peak temperature difference, Tn(composition)--Tn(polyester) is determined by measuring the crystallisation peak temperatures on heating for the composition in comparison with the polyester of the composition not containing the ionisable salt. The detailed procedure is as follows. Compositions were prepared from the polyester and the additive by mixing on a 2-roll mill at 300° C. for 2 minutes. The sample was taken from the mill and pressed into a film in a compression moulding machine. 10 mg samples of the composition were placed in a capsule, rapidly heated to 290° C. and maintained at that temperature for 1 minute. The capsule was then dropped into water to quench the polymer and prevent crystallisation. The sample was then placed in a Perkin Elmer DSC 2 machine and heated at a rate of 10° C./minute until reaching a temperature of 290° C. The crystallisation peak temperature observed on this heating cycle is recorded and compared with the value for the polyester not containing the additive.
Samples of polyethylene terephthalate (I.V. =0.73) containing 1% of the salts listed in Table 2 were prepared by compounding at 300° C. on a 2-roll mill for 2 minutes. The samples were evaluated to determine Tn(composition-Tn(polyester), the total number of end groups, the number of carboxylate groups and the number of hydroxyl and carboxyl groups.
The salts listed in Table 3 were deposited from solution on the surface of polyethylene terephthalate chip to give a concentration of 1% by weight of salt. The product was dried under vcuum at 96° C. for 3 hours. The compositions were pressed into film using a temperature of 280° C. for 1 minute. The DSC measurements were made after quenching from the melt to prevent crystallisation and using a heating rate of 16° C./minute.
1% by weight of the sodium salt of saccharin was deposited on the surface of granules of a polyethylene terephthalate homopolymer of I.V. =0.73 by evaporating an aqueous solution of the salt from the granules by drying at 96° C. under vacuum for 3 hours. The granules obtained were compression moulded into film by pressing at 280° C. for 60 second. The film was used for measurements of Tn at a heating rate of 16° C./minute.
The effect of the salts listed in Table 4 was determined by taking granules of a polymer of poly(ethylene terephthalate) homopolymer having an intrinsic viscosity of 0.73 and evaporating a solution of the salt in methanol or water from the surface of the granules by drying at 96° C. under vacuum for 3 hours. The proportions of polymer and solution used were such as to give a concentration of 1% of salt by weight of the final dry composition. The granules obtained were compression-moulded into film at 280° C. for various periods of time. The film was used for measurement of Tn as hereinbefore described.
Two samples of polyethylene terephthalate chip (I.V. =0.73) were coated from solution with 1% of the sodium salt of o-hydroxybenzoic acid and the disodium salt of the same acid respectively. After drying for 3 hours in a vacuum oven at 95° C. films were prepared by pressing the products for 1 minute at 280° C.

[10] = Crystallisation peak temperature on heating (Tn), DSC, block copolymer; type: physicochemical; conditions: 1% salt, 2-roll mill 270 °C 2 minutes, block copolymer; heating rate 10 °C/minute
Experimental: A block copolymer containing 5% by weight of polyethylene glycol units of molecular weight 1540 in chip form was blended with a solution of the sodium salt of o-chlorobenzoic acid to give a salt concentration of 1% by weight of the polyester. Samples were prepared for DSC analysis using the procedure of Example 15.
as §3

[11] = Degradation constant K (melt degradation performance); type: physicochemical; conditions: 1% salt deposited from solution on PET (Examples 13-15); listed as disodium salt of o-hydroxy benzoic acid

O=C([O-])c1ccc([N+](=O)[O-])cc1Cl.[Na+]
δ × pKH.sbsb.2O [1]: 26
K [2]: 39
t1/2 (sec) 110° C. [3]: 90 s
t1/2 (sec) 120° C. [3]: 48 s
crystallinity [4]: 40%
pKH.sbsb.2O [5]: 2
ΔT [6]: 103

O=C(O)c1ccccc1O [ortho-ONa-benzoic acid]
K value [7]: less than that for the polyester itself
total number of end groups determined from the intrinsic viscosity [8]: 137
K ([2]; 1% salt in PET, 2-roll mill 270 °C 5 min, molten state 290 °C): 24
t1/2 (sec) 110° C. [3]: 70 s
t1/2 (sec) 120° C. [3]: 49 s
Tn (16° C./min) [9]: 108 °C
Tn [10]: 100 °C
K [11]: 24
ΔT ([6]; 1% salt in PET, 2-roll mill 270 °C 5 min, 10 °C/minute): 110 °C
